Measured values taken from US20170327598A1, “SINGLE DOMAIN ANTIBODIES DIRECTED AGAINST INTRACELLULAR ANTIGENS” (SINGH MOLECULAR MEDICINE, LLC, priority 2014, published 2017).
Values joined by “and” are separate entries in the source; they are usually repeats but may differ in a detail not shown here. Identical values can stand only once.

What was measured:
PANC-1 cells = assay: MTT proliferation assay, PANC-1; format: cell-based, human; settings: for Mean Absorbance (570 nM) ± S.E.: single experiments 1-3, listed as B.VHH13
MDA-MB-468 cells = assay: MTT proliferation assay, MDA-MB-468; format: cell-based, human; settings: MDA-MB-468, 72 hours
BT474 cells = assay: MTT proliferation assay, BT474; format: cell-based, human; settings: BT474, 72 hours
[1] = test system: BT474 human breast tumor xenograft; assay: BT474 human breast tumor xenograft in CB.17 SCID mice, Example 13; format: in vivo
U87 mg cells = assay: Anti-proliferative effect, U87 mg cells; format: cell-based; settings: for Absorbance ± S.E. / % Inhibition: 72 hr
human STAT3 = assay: Biacore 3000 protein binding, STAT3 ligand immobilized (Example 22); settings: sdAb as analyte
STAT5 = assay: Biacore 3000, sdAb immobilized, STAT5 analyte (Example 23); format: binding
[2] = test system: STAT3 reporter, induction by interleukin-6; assay: STAT3 reporter GloResponse SIE-luc2P/HEK293 cell assay, IL-6 induction; format: cell-based; settings: for decrease in RLU: highest concentration;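 as to all read-outs here: IL-6 added at 40 ng/mL (EC80) for roughly one day after pretreatment, luciferase luminescence read with Bio-Glo reagent, untreated +IL6 wells serve as control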
[3] = test system: GloResponse SIE-luc2P/HEK 293 cells; assay: BCA protein concentration of reporter cells run in parallel; format: cell-based; settings: highest concentration
ARPE-19 cells = assay: BCA protein content of ARPE-19 cell lysate, Experiment 1; format: cell-based; settings: 24 Hr; for Protein Conc.: cell lysate
Description: For Experiment 1, the retinal cell line ARPE-19 (ATCC, Manassas, Va.) were plated at 5×10^4 cells/well into a 24-well plate and grown to confluence. All incubations with cells were performed in a 37° C., 5% CO2 humidified incubator. The media was replaced with growth media (DMEM:HAM12) containing 1% FBS and incubated overnight. […] At that time, the supernatant was removed and stored at <−65° C. for ELISA analysis. Cells were lysed using RIPA lysis buffer (ThermoFisher Scientific, Rockford, Ill.) and the protein content of the cell lysate was measured in the BCA assay (ThermoFisher Scientific) according to the kit instructions. VEGF-A was measured utilizing the Human VEGF-A ELISA Kit (ThermoFisher Scientific) in accordance with the kit instructions.
ELISA results were reported as pictograms (pg) VEGF-A/mL and then adjusted for the dilution of samples in the ELISA (1:2 for Experiment 1 and 1:5 for Experiment 2). The ELISA results were then normalized for protein content. […] The positive control (PC) (anti-STAT3 monoclonal antibody) ranged from 48.8 to 66.4 pg VEFG/[…] slightly lower but overlapping the range seen with the negative control. Statistical analysis confirmed that the variation seen was not statistically significant (P value >0.05). The samples collected at 72 hours were higher than the top standard curve.

DU145 tumor xenograft = assay: DU145 xenograft study, Example 11
PANC-1 xenograft = assay: PANC-1 xenograft, sdAb alone, Gemcitabine alone or combination, Example 19; settings: SBT-100 5 mg/kg BID, Gemcitabine 20 mg/kg, or both
[4] = 24 Hour Treatment Prior to IL6 Induction, high conc.: VHH13 55.8 μg/mL, VHH14 84.3 μg/mL, BB1608 4.16 μM, VHH69 50.5 μg/mL
[5] = 24 Hour Treatment Prior to IL6 Induction, low conc.: VHH13, VHH14, VHH69 10 μg/mL, BB1608 2 μM
[6] = 48 Hour Treatment Prior to IL6 Induction, high conc.: VHH13 55.8 μg/mL, VHH14 84.3 μg/mL, BB1608 4.16 μM, VHH69 50.5 μg/mL
[7] = 48 Hour Treatment Prior to IL6 Induction, low conc.: VHH13, VHH14, VHH69 10 μg/mL, BB1608 2 μM

“Anti-STAT3 VHH13: anti-STAT3 single domain antibody, SEQ ID NO:3; bacterially produced form referred to as SBT-100” was tested, and the “Mean Absorbance (570 nM) ± S.E., Overall Mean” value (“Mean Absorbance … Overall Mean” below) (PANC-1 cells; PANC-1, Day 3, 10.0 μg/ml) was 0.472 ± 0.020, the “Mean Absorbance (570 nM) ± S.E.” value (PANC-1 cells; PANC-1, Day 3, 10.0 μg/ml) was 0.432 ± 0.015 and 0.491 ± 0.087 and 0.493 ± 0.029 and the “Mean Absorbance … Overall Mean” value (PANC-1 cells; PANC-1, Day 3, 100 μg/ml) was 0.214 ± 0.047. For the same substance, the “Mean Absorbance (570 nM) ± S.E.” value (PANC-1 cells; PANC-1, Day 3, 100 μg/ml) was 0.307 ± 0.012 and 0.169 ± 0.094 and 0.166 ± 0.028, the “Mean Absorbance … Overall Mean” value (PANC-1 cells; PANC-1, Day 5, 10.0 μg/ml) was 0.643 ± 0.126 and the “Mean Absorbance … Overall Mean” value (PANC-1 cells; PANC-1, Day 5, 100 μg/ml) was 0.219 ± 0.012. The “Mean Absorbance (570 nM) ± S.E.” value (PANC-1 cells; PANC-1, Day 5, 100 μg/ml) was 0.243 ± 0.024 and 0.211 ± 0.006 and 0.203 ± 0.013, the “Mean Abs” value (MDA-MB-468 cells; 0.39 μg/ml) was 0.311 and the “% Inhibition” value (MDA-MB-468 cells; 3.13 μg/ml) was 11.9%. The “Mean Abs” value (MDA-MB-468 cells; 3.13 μg/ml) was 0.223, the “% Inhibition” value (MDA-MB-468 cells; 6.25 μg/ml) was 9.1% and the “Mean Abs” value (MDA-MB-468 cells; 6.25 μg/ml) was 0.230. The “% Inhibition” value (MDA-MB-468 cells; 25 μg/ml) was 73.5%, the “Mean Abs” value (MDA-MB-468 cells; 25 μg/ml) was 0.067 and the “% Inhibition” value (MDA-MB-468 cells; 50 μg/ml) was 83.4%. For the same substance, the “Mean Abs” value (MDA-MB-468 cells; 50 μg/ml) was 0.042, the “% Inhibition” value (MDA-MB-468 cells; 100 μg/ml) was 85.0% and the “Mean Abs” value (MDA-MB-468 cells; 100 μg/ml) was 0.038. For the same substance, the “% Inhibition” value (MDA-MB-468 cells; 200 μg/ml) was 84.4%, the “Mean Abs” value (MDA-MB-468 cells; 200 μg/ml) was 0.040 and the “Mean Abs” value (BT474 cells; 0.39 μg/ml) was 0.322. The “Mean Abs” value (BT474 cells; 3.13 μg/ml) was 0.446, the “Mean Abs” value (BT474 cells; 6.25 μg/ml) was 0.469 and the “Mean Abs” value (BT474 cells; 25 μg/ml) was 0.256. For the same substance, the “Mean Abs” value (BT474 cells; 50 μg/ml) was 0.145, the “Mean Abs” value (BT474 cells; 100 μg/ml) was 0.046 and the “Mean Abs” value (BT474 cells; 200 μg/ml) was 0.040. The T-C ([1]; 1 mg/kg ip tid × 14 first day 2 doses) was 10.8, the “effect on growth of BT474 tumors in vivo” value ([1]; 1 mg/kg ip tid×14, compared to the control group) was “did not reduce the growth” and the “MTV (n) Day 60” value ([1]; Day 60, 1 mg/kg ip tid × 14, n in parentheses) was 550 (3). The tumor volume ([1]; day 59 of the study, both groups) was 700 cubic mm^3, the “Absorbance ± S.E.” value (U87 mg cells; 25 μg/ml) was 0.687 ± 0.03 and the “% Inhibition” value (U87 mg cells; 50 μg/ml) was 18%. The “Absorbance ± S.E.” value (U87 mg cells; 50 μg/ml) was 0.456 ± 0.01, the “% Inhibition” value (U87 mg cells; 100 μg/ml) was 51% and the “Absorbance ± S.E.” value (U87 mg cells; 100 μg/ml) was 0.271 ± 0.02. For the same substance, the “% Inhibition” value (U87 mg cells; 200 μg/ml) was 62%, the “Absorbance ± S.E.” value (U87 mg cells; 200 μg/ml) was 0.211 ± 0.03 and the IC50 (U87 mg cells; U87 mg cells) was 65 µg/mL. The “Absorbance ± S.E.” value (U87 mg cells; […]) was 0.702 ± 0.04, the “binding to STAT3 ligand” value (human STAT3) was “bound” and the “binding of STAT5” value (STAT5; Biacore, sdAb immobilized) was “bound”. For the same substance, the Result (STAT5; sdAb immobilized (STAT5-31 440 RU, anti-KRAS 140 RU, VHH13 1000 RU), STAT5 protein analyte 500 nM) was “Binding”, the “Average RLU” value [2, 4] was 11498 RLU and the “Average RLU with Media Blank” value [2, 4] was 11473 RLU. The “Luminescence (RLU), single wells” value [2, 4] was 10992 RLU and 11445 RLU and 12058 RLU, the “Average RLU” value [2, 5] was 175275 RLU and the “Average RLU with Media Blank” value [2, 5] was 175249 RLU. For the same substance, the “Luminescence (RLU), single wells” value [2, 5] was 164397 RLU and 169890 RLU and 191537 RLU, the “Average RLU” value [2, 6] was 89 RLU and the “Average RLU with Media Blank” value [2, 6] was 57 RLU. The “Luminescence (RLU), single wells” value [2, 6] was 104 RLU and 96 RLU, the “Average RLU” value [2, 7] was 182218 RLU and the “Average RLU with Media Blank” value [2, 7] was 182185 RLU. For the same substance, the “Luminescence (RLU), single wells” value [2, 7] was 168740 RLU and 188307 RLU and 189606 RLU, the “effect on IL-6 induction of STAT3 reporter” value ([2]; 24 hours and 48 hours treatment prior to IL-6) was “Inhibition of IL-6” and the “decrease in RLU” value ([2]; 24 hours) was “greater than 10 fold”. For the same substance, the “decrease in RLU” value ([2]; 48 hours) was “greater than 1,000 fold”, the decrease in protein [3] was “approximately 2 fold” and the “Total protein per well” value (ARPE-19 cells; 0.1 μg/well) was 12 and 16 and 18. The “Protein Conc.” value (ARPE-19 cells; 0.1 μg/well) was 245 µg/mL and 323 µg/mL and 357 µg/mL, the “Total protein per well” value (ARPE-19 cells; 0.5 μg/well) was 16 and 13 and the “Protein Conc.” value (ARPE-19 cells; 0.5 μg/well) was 315 µg/mL and 268 µg/mL and 206 µg/mL. For the same substance, the “% treatment/control” value (DU145 tumor xenograft; 5 mg/kg bw IP BIDx14) was 74.8%, the tumor doubling time (DU145 tumor xenograft; 5 mg/kg bw IP BIDx14) was 18.19 days and the “mean tumor growth inhibition” value (DU145 tumor xenograft; 5 mg/kg bw IP BIDx14, end of the study) was 26.6%. For the same substance, the “mean tumor size (±SE)” value (DU145 tumor xenograft; 5 mg/kg bw IP BIDx14, last day of dosing (Day 14)) was 364.14±51.64, the “mean tumor size (±S.E.)” value (DU145 tumor xenograft; 5 mg/kg bw IP BIDx14, termination (day 28)) was 601.83±131.51 and the “TUMOR VOLUMES (mm^3) Mean” value (PANC-1 xenograft; Day 1) was 107.34 mm^3. For the same substance, the “TUMOR VOLUMES (mm^3) Mean” value (PANC-1 xenograft; Day 5) was 145.86 mm^3, the “TUMOR VOLUMES (mm^3) Mean” value (PANC-1 xenograft; Day 8) was 149.12 mm^3 and the “% INHIBITION OF CONTROL (tumor growth)” value (PANC-1 xenograft; Day 12) was 20.70%. For the same substance, the “TUMOR VOLUMES (mm^3) Mean” value (PANC-1 xenograft; Day 12) was 188.78 mm^3, the “TUMOR VOLUMES (mm^3) Mean” value (PANC-1 xenograft; Day 15) was 233.25 mm^3 and the “% INHIBITION OF CONTROL (tumor growth)” value (PANC-1 xenograft; Day 19) was 18.37%. For the same substance, the “TUMOR VOLUMES (mm^3) Mean” value (PANC-1 xenograft; Day 19) was 332.68 mm^3, the “% INHIBITION OF CONTROL (tumor growth)” value (PANC-1 xenograft; Day 22) was 19.17% and the “TUMOR VOLUMES (mm^3) Mean” value (PANC-1 xenograft; Day 22) was 390.59 mm^3.
